From US6737383B1, “Herbicidal oxadiazolidines” (priority 1999, dated 2004)

Assays:
[1] = system: purple nutsedge; assay: Test B pre/postemergence purple nutsedge; assay type: in vivo, Cyperus rotundus
How it was run: (§1)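 Test chemicals in a non-phytotoxic solvent mixture with surfactant were sprayed preemergence onto planted seeds and postemergence onto plants 2 to 18 cm tall (1- to 4-leaf stage). After twelve to sixteen days in a greenhouse, injury was visually rated against untreated controls from 0 (no effect) to 10 (complete control).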

[2] = system: giant foxtail; assay: Test B pre/postemergence giant foxtail; assay type: in vivo, Setaria faberii
How it was run: as §1

[3] = system: blackgrass; assay: Test B pre/postemergence blackgrass; assay type: in vivo, Alopecurus myosuroides
How it was run: as §1

[4] = system: sugar beet; assay: Test B pre/postemergence sugar beet; assay type: in vivo, Beta vulgaris
How it was run: as §1

[5] = system: corn; assay: Test B pre/postemergence corn; assay type: in vivo, Zea mays; conditions: for Corn plant response rating: Postemergence; for Plant response rating, Corn: Preemergence
How it was run: as §1

[6] = system: velvetleaf; assay: Test B pre/postemergence velvetleaf; assay type: in vivo, Abutilon theophrasti
How it was run: as §1

[7] = system: bedstraw; assay: Test B pre/postemergence bedstraw; assay type: in vivo, Galium aparine; conditions: for Bedstraw plant response rating: Postemergence; for Plant response rating, Bedstraw: Preemergence
How it was run: as §1

[8] = system: surinam grass; assay: Test B pre/postemergence surinam grass; assay type: in vivo, Brachiaria decumbens
How it was run: as §1

[9] = system: cocklebur; assay: Test B pre/postemergence cocklebur; assay type: in vivo, Xanthium strumarium
How it was run: as §1

[10] = system: bamyardgrass; assay: Test B flood test barnyardgrass; assay type: in vivo, Echinochloa crus-galli
How it was run: (§2)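 Flood test on plants grown to the 2-leaf stage; treated plants kept in greenhouse twelve to sixteen days, then visually rated against controls on a 0 (no effect) to 10 (complete control) scale.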

[11] = system: morningglory; assay: Test B pre/postemergence morningglory; assay type: in vivo, Ipomoea hederacea; conditions: for Morningglory plant response rating: Postemergence; for Plant response rating, Morningglory: Preemergence
How it was run: as §1

[12] = system: duck salad; assay: Test B flood test duck salad; assay type: in vivo, Heteranthera limosa
How it was run: as §2

[13] = system: rice; assay: Test B flood test rice; assay type: in vivo, Oryza sativa
How it was run: as §2

[14] = system: pigweed; assay: Test B pre/postemergence pigweed; assay type: in vivo, Amaranthus retroflexus
How it was run: as §1

[15] = system: rape; assay: Test B pre/postemergence rape; assay type: in vivo, Brassica napus
How it was run: as §1

[16] = Postemergence, Rate 62 g/ha, scale 0 to 10, 0 is no effect, 10 is complete control
[17] = Postemergence, Rate 250 g/ha, scale 0 to 10, 0 no effect, 10 complete control
[18] = Preemergence, Rate 62 g/ha, scale 0 to 10, 0 is no effect, 10 is complete control
[19] = Preemergence, Rate 125 g/ha, scale 0 to 10 (0 no effect, 10 complete control)
[20] = Preemergence, Rate 250 g/ha, scale of 0 to 10 where 0 is no effect and 10 is complete control
[21] = Preemergence, Rate 500 g/ha, scale 0 (no effect) to 10 (complete control)
[22] = Rate 125 g/ha, Postemergence, scale 0 to 10, 0 no effect, 10 complete control
[23] = Rate 500 g/ha, Postemergence, scale 0 to 10, 0 no effect, 10 complete control
[24] = Rate 62 g/ha, scale 0 to 10, 0 is no effect, 10 is complete control
[25] = Rate 250 g/ha, scale 0 to 10, 0 no effect, 10 complete control
[26] = Rate 125 g/ha, scale 0 to 10 (0 no effect, 10 complete control)
[27] = Rate 250 g/ha, scale of 0 to 10 where 0 is no effect and 10 is complete control
[28] = Rate 125 g/ha, scale 0 to 10, 0 no effect, 10 complete control
[29] = Rate 500 g/ha, scale 0 to 10, 0 no effect, 10 complete control
[30] = Rate 125 g/ha, Postemergence section (flood test species), scale 0 to 10, 0 no effect, 10 complete control
[31] = Rate 500 g/ha, listed under Postemergence (flood test species), scale 0 to 10, 0 no effect, 10 complete control
[32] = flood test, listed under Postemergence, Rate 250 g/ha, scale 0 to 10, 0 no effect, 10 complete control

Cc1cccc(Cl)c1-n1c(=O)on(C(=O)N(c2ccc(F)cc2)C(C)C)c1=O [Compound 53]
Nutsedge plant response rating [1, 16]: 0 | Nutsedge plant response rating [1, 17]: 0 | Plant response rating, Nutsedge [1, 18]: 0 | Plant response rating, Nutsedge [1, 19]: 0 | Plant response rating, Nutsedge [1, 20]: 0 | Nutsedge plant response rating [1, 21]: 0 | Nutsedge plant response rating [1, 22]: 0 | Nutsedge plant response rating [1, 23]: 0 | Giant foxtail plant response rating [2, 16]: 0 | Giant foxtail plant response rating [2, 17]: 3 | Plant response rating, Giant foxtail [2, 18]: 3 | Plant response rating, Giant foxtail [2, 19]: 3 | Plant response rating, Giant foxtail [2, 20]: 8 | Giant foxtail plant response rating [2, 21]: 10 | Giant foxtail plant response rating [2, 22]: 3 | Giant foxtail plant response rating [2, 23]: 3 | Blackgrass plant response rating [3, 16]: 0 | Blackgrass plant response rating [3, 17]: 0 | Plant response rating, Blackgrass [3, 18]: 0 | Plant response rating, Blackgrass [3, 19]: 1 | Plant response rating, Blackgrass [3, 20]: 1 | Blackgrass plant response rating [3, 21]: 4 | Blackgrass plant response rating [3, 22]: 0 | Blackgrass plant response rating [3, 23]: 0 | Sugarbeets plant response rating [4, 16]: 0 | Sugarbeets plant response rating [4, 17]: 1 | Plant response rating, Sugarbeets [4, 18]: 0 | Plant response rating, Sugarbeets [4, 19]: 0 | Plant response rating, Sugarbeets [4, 20]: 0 | Sugarbeets plant response rating [4, 21]: 3 | Sugarbeets plant response rating [4, 22]: 0 | Sugarbeets plant response rating [4, 23]: 2 | Corn plant response rating [5, 24]: 0 | Corn plant response rating [5, 25]: 0 | Plant response rating, Corn [5, 24]: 0 | Plant response rating, Corn [5, 26]: 0 | Plant response rating, Corn [5, 27]: 0 | Corn plant response rating [5, 28]: 0 | Corn plant response rating [5, 29]: 0 | Velvetleaf plant response rating [6, 16]: 0 | Velvetleaf plant response rating [6, 17]: 1 | Plant response rating, Velvetleaf [6, 18]: 0 | Plant response rating, Velvetleaf [6, 19]: 0 | Plant response rating, Velvetleaf [6, 20]: 0 | Velvetleaf plant response rating [6, 21]: 0 | Velvetleaf plant response rating [6, 22]: 0 | Velvetleaf plant response rating [6, 23]: 1 | Bedstraw plant response rating [7, 24]: 2 | Plant response rating, Bedstraw [7, 24]: 0 | Plant response rating, Bedstraw [7, 26]: 0 | Plant response rating, Bedstraw [7, 27]: 0 | Bedstraw plant response rating [7, 28]: 3 | B. signalgrass plant response rating [8, 16]: 0 | B. signalgrass plant response rating [8, 17]: 0 | Plant response rating, B. signalgrass [8, 18]: 0 | Plant response rating, B. signalgrass [8, 19]: 0 | Plant response rating, B. signalgrass [8, 20]: 2 | B. signalgrass plant response rating [8, 21]: 3 | B. signalgrass plant response rating [8, 22]: 0 | B. signalgrass plant response rating ([8]; Rate 500 g/ha, Postemergence, scale of 0 to 10 where 0 is no effect and 10 is complete control): 0 | Cocklebur plant response rating [9, 16]: 0 | Cocklebur plant response rating [9, 17]: 4 | Plant response rating, Cocklebur [9, 18]: 0 | Plant response rating, Cocklebur [9, 20]: 0 | Cocklebur plant response rating [9, 21]: — 0 0 0 0 | Cocklebur plant response rating [9, 22]: 0 | Cocklebur plant response rating [9, 23]: 4 | Barnyardgrass plant response rating [10, 16]: 0 | Barnyardgrass plant response rating [10, 30]: 0 | Barnyardgrass plant response rating [10, 31]: 0 | Barnyardgrass plant response rating [10, 32]: 0 | Morningglory plant response rating [11, 24]: 1 | Morningglory plant response rating [11, 25]: 5 | Plant response rating, Morningglory [11, 24]: 0 | Plant response rating, Morningglory [11, 26]: 0 | Plant response rating, Morningglory [11, 27]: 0 | Morningglory plant response rating [11, 28]: 1 | Morningglory plant response rating [11, 29]: 6 | Ducksalad plant response rating [12, 16]: 0 | Ducksalad plant response rating [12, 30]: 0 | Ducksalad plant response rating [12, 31]: 0 | Ducksalad plant response rating [12, 32]: 0 | Rice plant response rating [13, 16]: 0 | Rice plant response rating [13, 30]: 0 | Rice plant response rating [13, 31]: 0 | Rice plant response rating [13, 32]: 0 | Redroot pigweed plant response rating [14, 16]: 1 | Redroot pigweed plant response rating [14, 17]: 6 | Plant response rating, Redroot pigweed [14, 18]: 0 | Plant response rating, Redroot pigweed [14, 19]: 0 | Plant response rating, Redroot pigweed [14, 20]: 0 | Redroot pigweed plant response rating [14, 21]: 3 | Redroot pigweed plant response rating [14, 22]: 3 | Redroot pigweed plant response rating [14, 23]: 10 | Rape plant response rating [15, 16]: 0 | Rape plant response rating [15, 17]: 0 | Plant response rating, Rape [15, 18]: 0 | Plant response rating, Rape [15, 19]: 0 | Plant response rating, Rape [15, 20]: 0 | Rape plant response rating [15, 21]: 0 | Rape plant response rating [15, 22]: 0 | Rape plant response rating [15, 23]: 3
